Measurements reported in the supplement of paper PMC10307832.

Columns and labels:
Assay in all cases: relative viability (nuclei count vs DMSO), 5 days (fraction); higher = more cells survive
MK-8033 + Foretinib = compound: Cn1cc(-c2cnc3ccc4ccc(CS(=O)(=O)NCc5ccccn5)cc4c(=O)c3c2)cn1 [MK-8033] + COc1cc2c(Oc3ccc(NC(=O)C4(C(=O)Nc5ccc(F)cc5)CC4)cc3F)ccnc2cc1OCCCN1CCOCC1 [Foretinib] (partner 0.25 µM)
Summary of the method: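 Nuclei were stained with Hoechst during a one-step fixation (final 0.05% Triton X-100, 1% formaldehyde, 1 ug/ml Hoechst) carried out 5 days after dosing, then counted on 4× images. The cells, lung cancer lines in 1536-well plates, had been dosed by pin tool the day after seeding with one drug alone or a fixed anchor-drug dose plus five library-drug doses (not always all listed) in √10 steps. Relative viability is the nuclei count in treated wells divided by that in vehicle wells, and each value is the median of duplicate plates.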

RU-SKI 43 = compound: CC[C@@H](C)CNCC(=O)N1CCC2=C([C@@H]1COC3=CC=CC(=C3)C)C=CS2 [RU-SKI 43]
Summary of the method: (§1)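 Viability here means nuclei in treated wells divided by nuclei in vehicle wells, reported as the median across plates. Only plates with control CV below 25% and at least one doubling passed. Lung cancer cell lines in 1536-well plates were exposed to five √10-spaced library-drug doses for 5 days and counted from 4× Hoechst images in MetaXpress.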

Irinotecan = compound: CCc1c2c(nc3ccc(OC(=O)N4CCC(N5CCCCC5)CC4)cc13)-c1cc3c(c(=O)n1C2)COC(=O)[C@]3(O)CC [Irinotecan]
Summary of the method: as §1

MK-8033 = compound: Cn1cc(-c2cnc3ccc4ccc(CS(=O)(=O)NCc5ccccn5)cc4c(=O)c3c2)cn1 [MK-8033]
Summary of the method: as §1

Cell Line	relative viability (MK-8033 + Foretinib; first compound 0.02 µM)	relative viability (MK-8033 + Foretinib; first compound 0.06325 µM)	relative viability (MK-8033 + Foretinib; first compound 0.2 µM)	relative viability (MK-8033 + Foretinib; first compound 0.6325 µM)	relative viability (MK-8033 + Foretinib; first compound 2 µM)	relative viability (RU-SKI 43; 0.1 µM)	relative viability (RU-SKI 43; 0.3162 µM)	relative viability (RU-SKI 43; 1 µM)	relative viability (RU-SKI 43; 3.162 µM)	relative viability (RU-SKI 43; 10 µM)	relative viability (Irinotecan; 0.6325 µM)	relative viability (Irinotecan; 2 µM)	relative viability (Irinotecan; 6.325 µM)	relative viability (Irinotecan; 20 µM)	relative viability (MK-8033; 0.02 µM)	relative viability (MK-8033; 0.06325 µM)	relative viability (MK-8033; 0.2 µM)	relative viability (MK-8033; 0.6325 µM)	relative viability (MK-8033; 2 µM)
NCI-H1666	1.02	0.842	0.911	0.953	1.01	0.953	0.954	0.967	1.04	0.865	0.889	0.763	0.573	0.459	0.984	0.94	0.945	0.947	0.96
HARA	0.772	0.781	0.884	0.548	0.997	1.06	0.959	1.05	1.06	0.84	0.612	0.618	0.308	0.245	0.97	0.769	0.87	0.806	0.944
NCI-H661	1.04	0.995	0.997	0.919	0.985	0.92	1.05	1.06	0.99	0.943	1.05	0.838	0.52	0.454	0.994	0.849	1.01	1.01	0.993
NCI-H2087	1.03	1.11	0.889	1.16	0.957	1.06	1.11	1.17	0.995	0.933	0.406	0.496	0.187	0.203	1.2	1.02	0.953	1.08	1.1
LC-2-ad	0.94	0.867		0.981	0.944	0.967	1.02	1.16	0.963	0.932	0.47	0.492	0.299	0.191	0.953	0.938	0.936	1	0.927
NCI-H2405	1.01	1.02	0.988	1.09	1.04	0.996	0.977	1.05	0.96	0.967		0.953	0.426	0.217	1.02	0.944	0.94	1.02	1.01
HCC-44						1.05	0.972	1.09	0.933	0.969	0.718	0.915	0.409	0.331	1.05	1.02	0.949	1.01	0.957
NCI-H3122	0.962	0.958	0.93	0.908	0.974	1.06	1.15	1.08	1.09	0.983	0.97	0.625	0.224	0.176	0.981	1.03	0.931	0.985	1.01
LU99A	0.903	0.716	0.834	0.841	0.743	0.93	1.08	0.95	0.966	0.851	0.38	0.355	0.215	0.212	1.05	0.897	0.817	0.947	0.926
ABC-1	1.03	0.97	0.906	0.985	1.11	1.06	0.985	1.33	0.984	0.85		0.956	0.496	0.21	0.972	0.861	0.886	0.965	1.04
H3255	0.848	0.619	0.831	0.596	0.757	1.02	0.995	1.11	0.995	0.885	0.743	0.684	0.392	0.379	1.06	0.853	0.942	0.794	0.942
HCC-827	1.1		0.989	0.967	1.03	1.06	1.01	1.1	1.05	1.06	0.938	0.779	0.263	0.296	1.01		1.01	1.01	1.05
NCI-H1734	0.829	0.665	0.78	0.861	0.856	0.961	1.05	1.03	1.07	0.88		0.77	0.195	0.181	1.1	0.845	0.944	0.993	0.985
EBC-1	0.103	0.0762	0.0977	0.126	0.0876	0.863	1.13	1.1	0.989	0.635	0.618	0.44	0.345	0.179	0.973	0.943	0.965	0.928	0.386
NCI-H838	1.05	0.993	0.994	0.89	0.954	0.97	0.965	1.05	1	0.981	1.05	1.02	0.526	0.316	0.954	0.923	0.919	0.952	0.953
NCI-H1437	1.21	1.3	1.19	1.23	1.19	1.07	1.04	1.14	1.04	0.986	0.824	0.719	0.426	0.289	0.964	0.972	0.919	1.01	0.93
NCI-H1915	1.08	0.997	1.05	1.07	1.11	1.06	1.11	1.08	1	1.02	0.353	0.475	0.224	0.214	1	0.916	0.963	1.02	0.959
